A compilation of properties of binary mixtures (doi:10.1016/j.fluid.2015.06.043)

Assay: xn = mol fraction of the nth substance listed
Details: 101 kPa

O + CC[n+]1ccccc1.O=S(=O)([O-])C(F)(F)F
x2 = 0
Details | viscosity [mPa·s]
298.15 K | 0.89
303.15 K | 0.8
313.15 K | 0.65
333.15 K | 0.47
343.15 K | 0.4

CC[n+]1ccccc1.O=S(=O)([N-]S(=O)(=O)C(F)(F)F)C(F)(F)F + O
viscosity [mPa·s]
Details | 283.15 K | 293.15 K | 298.15 K | 303.15 K | 313.15 K | 333.15 K | 343.15 K | 353.15 K
x2 = 0.0043 | 78.6 | 49.9 | 40.1 | 33.3 | 24 | 13.7 | 10.88 | –
x2 = 0.087 | 64.3 | 41.7 | – | 28.4 | 20.6 | 12.15 | – | 7.92

CC[n+]1ccccc1.O=S(=O)([O-])C(F)(F)F + O
viscosity [mPa·s]
Details | 293.15 K | 298.15 K | 303.15 K | 313.15 K | 323.15 K | 333.15 K | 343.15 K | 353.15 K
x1 = 0.067 | – | – | 1.9 | 1.5 | 1.22 | 1.02 | – | –
x1 = 0.183 | 5.3 | 4.6 | 4.03 | 3.16 | 2.55 | 2.1 | 1.76 | –
x1 = 0.498 | 17.7 | – | 13 | 9.96 | 7.86 | 6.34 | 5.24 | 4.41
x1 = 0.689 | 33.4 | 27.8 | 23.5 | – | 13.26 | 10.46 | – | 6.92
x1 = 0.893 | 65.7 | 53.2 | 43.7 | 30.8 | 22.5 | 17.1 | 13.4 | –
x1 = 1 | 75.2 | 60.6 | 48.8 | 33.8 | 24.5 | 18.2 | 14.05 | 11.13
